Test results taken from patent US20220356163A1, “SMALL MOLECULE INHIBITORS OF Id PROTEINS” (MEMORIAL SLOAN KETTERING CANCER CENTER, priority 2019, published 2022).
pIC50: −log10 of the molar value. Entries after “also recorded” stand apart in the source; their conditions may differ.

Key:
[1] = tested on: PDX-IBT; test: MTT assay, PDX-IBT; type: cell-based; settings: 24 h, PDX cell line, read-out: IC50 value after 24 hours of treatment
Description: The 4T1 murine mammary tumor cell line and nine breast cancer cell lines representing the major breast cancer subtypes (ER+, HER2+, and TNBC) including MDA-MB-157, MDA-MB-436, MDA-MB-231, MDA-MB-453, MDA-MB-361, BT-474, SK-BR-3, MCF-7 and T47-D will be grown in RPMI or DMEM (Dulbecco's Modified Eagle Medium) media supplemented with 10% FBS (fetal bovine serum), 1% penicillin-streptomycin and 1% L-Glutamine. Patient derived xenograft cell lines BR7, BR11, and IBT will be established directly from breast cancer bone metastases specimens surgically resected from patients with informed consent. BR7 and BR11 specimens will be obtained from ER positive (HER2 negative and PR negative) metastatic breast cancer patients, while the IBT specimen will be obtained from a metastatic, triple negative breast cancer patient. Fresh tumor tissues will be quickly washed with ice cold PBS and minced into about 1-3 mm pieces in MEM medium (without FBS) using sterile razor blades. […] The cells will be treated with either 100 μM DMSO, AGX51, or a compound of the present technology such as AGX-A. The cell morphology and growth will be monitored daily for 1 week by microscopy for changes in morphology or cell death. […] Absorbance will then measured at 570 nm using a plate reader (Synergy 2, BioTek). […]

[2] = tested on: lung metastases; test: LLC metastasis model; type: in vivo, mouse; settings: daily ip
Procedure: Thirty C57BL/6 mice will be implanted with 7.5×10^5 LLC cancer cells/animal. Seven days after implantation, 5M/5F per group will be treated daily ip for 25 days with dosing vehicle (DMSO), AGX51, or a compound of the present technology (such as AGX-A). Fourteen days after implantation, another group of 5M/5F animals will be treated daily ip for 18 days with 50 mg/kg of AGX51 and another group of 5M/5F animals will be treated daily ip for 18 days with a compound of the present technology (such as AGX-A). Tumors will be measured three times from Day 7 to 14. On Day 14, the tumors will be excised. The animals will be necropsied for the presence of lung metastases on day 32, 18 days post excision.

[3] = molecular target: T1, ID1 (Homo sapiens, UniProt P41134); test: Western blot for ID1 in HUVECs; type: cell-based; design: host or cells: HUVEC; settings: 0-40 μM, 24 hours
T1 sequence (P41134 1-155): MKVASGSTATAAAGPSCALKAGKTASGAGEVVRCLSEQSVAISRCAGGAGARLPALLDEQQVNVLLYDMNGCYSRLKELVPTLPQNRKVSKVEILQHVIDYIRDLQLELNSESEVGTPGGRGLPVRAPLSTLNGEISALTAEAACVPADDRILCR
Procedure: (§1) Immunoblotting. For immunoblotting, cells were collected by trypsinization, washed with PBS and lysed in homogenization buffer (0.3 M sucrose, 10 mM Tris (pH 8.0), 400 mM sodium chloride, 3 mM magnesium chloride, 0.5% NP40/IGEPAL, 100 μg/mL Aprotinin+Protease inhibitor cocktail (Roche #11 836 153 001). Proteins were separated by SDS-PAGE, transferred to a membrane (LI-COR), probed with primary antibodies overnight at 4° C., and probed with secondary antibodies (LI-COR) for 1-2 hours at room temperature. Proteins were visualized using the LI-COR Odyssey Infrared Imaging detection system. The following primary antibodies were used Id1, Id2, Id3, Id4 (195-14, 9-2-8, 17-3, 82-12, respectively, all from Biocheck), Cyclin D1 (2978, Cell Signaling), Actin (A2066, Sigma), Tubulin (T4026, Sigma). Western blot quantification was carried out using channel 700 and channel 800 intensity data from Odyssey application software version 3.0.30 (LI-COR), subtracting blank values and normalizing to Tubulin.
The activity of AGX51 was tested on primary human umbilical vein endothelial cells (HUVECs) and the HCT116 colorectal cancer cell line, two cell types with different ID1-4 expression profiles. […] The effects of AGX51 on ID3 loss in HUVECs was diminished in the 20-40 μM range compared with ID1, consistent with the weaker perturbation observed in the CD spectra.

[4] = tested on: Id proteins; test: Western blot for Id1 in HCT116 and 4T1 cells (FIGS. 7C-7D); type: cell-based; settings: 24 hours
Procedure: The IC50 is indicated. […] The IC50 is indicated. […] Laser-induced choroidal neovascularization (NV) was induced in mice and they were treated by intravitreal injection with DMSO, 1 or 5 μg AGX-A, or 1 or 5 μg AGX51. On day 14 the animals were euthanized and area of CNV was measured (** indicates p<0.01, *** indicates p<0.0001 by ANOVA, error bars show SEM).
as §1

[5] = molecular target: T2, Id3 (Homo sapiens, UniProt Q02535); test: Knockdown of Id3 in TFK1 cell cultures; type: cell-based; settings: TFK1, FIG. 22
T2 construct: endogenous in cells; host or cells: TFK1
Description: Following the methods described herein (see, e.g., Examples 12-13), AGX-A and AGX51 were compared for their ability to mediate Id knockdown in cell cultures. FIG. 21 illustrates side-by-side comparative effects of AGX51 and AGX-A for knockdown of Id1 in TFK1 cell cultures, and FIG. 22 illustrates side-by-side comparative effects of AGX51 and AGX-A for knockdown of Id3 in TFK1 cell cultures.

T2 sequence (Q02535 whole entry): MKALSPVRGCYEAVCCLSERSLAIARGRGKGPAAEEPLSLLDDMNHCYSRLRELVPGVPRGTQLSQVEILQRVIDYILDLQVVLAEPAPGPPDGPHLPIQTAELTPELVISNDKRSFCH

Structure (SMILES) | pIC50 [1] | lung metastases [2] | concentration at which significant decrease in ID1 protein levels was observed [3] | Id protein levels in cells, concentration needed relative to AGX51 [4] | Id3 knockdown potency vs AGX51 [5]
CCC(=O)N(CCC(c1ccc2c(c1)OCO2)c1ccccc1OC)Cc1ccccc1 (racemic) [AGX51, N-(3-(benzo[d][1,3]dioxol-5-yl)-3-(2-methoxyphenyl)propyl)-N-benzylpropionamide] | 4.92 | profoundly diminish lung metastases | 10 µM | – | –
COc1ccccc1C(CCNCc1ccccc1)c1ccc(OC(C)C)cc1 (centres unmarked) [AGX-A, N-benzyl-3-(4-isopropoxyphenyl)-3-(2-methoxyphenyl)propan-1-anine] | – | – | – | reduced Id protein levels at lower concentrations than AGX51; also recorded: degraded Id proteins in cells at lower concentrations than AGX51 | superior anti-Id1 and anti-Id3 potency compared to AGX51
